Results as given in paper PMC10688702, “The indole motif is essential for the antitrypanosomal activity of N^5-substituted paullones” (PLOS ONE, 2023).
Read-outs that look alike come from different tables or passages of the source.

Assays:
[1] = molecular target: trypanothione synthetase of L. infantum (LiTryS) (Leishmania infantum, UniProt A4I2Z3); test: TryS activity screening assay on recombinant LiTryS; assay type: biochemical; conditions: read-out: LiTryS activity [% at 30 μM]
Description: (§1) TryS from different trypanosomatids was produced in recombinant form with an N-terminal His-tag. The constructs pET-15b TbTryS and pET-28c(+)LiTryS were used to express TryS of T. b. brucei 427 (MITat1.4, GenBank accession protein id CAC87573.1), and L. infantum JPCM5 (GenBank accession protein id CAM69145.1). E. coli strain BL21 (DE3) served as the expression host. For TbTryS, the cells were cultured in a medium based in Terrific Broth and induction with isopropyl 1-thio-β-D-galactopyranoside (IPTG), while for LiTryS, the cells were cultured in ZYM-5052 auto-induction medium. For a detailed description of the expression, see Benítez et al.. The purification was performed by immobilised metal affinity chromatography in a HisTrap Fast Flow column (GE Healthcare) followed by size exclusion chromatography. […] The fractions containing recombinant TryS with ≥95% purity were pooled and concentrated to >10 mg protein/mL using a 10 kDa cut-off Amicon filter (Millipore, Billerica, CA). Glycerol was added at a final concentration of 40% (v/v). The samples were stored at -80°C. Enzyme purity and activity were assessed by SDS-PAGE (12%) under reducing conditions and by the end-point TryS assay (see TryS activity screening assay), respectively. Protein concentration was determined using the bicinchoninic acid assay with bovine serum albumin as standard. The protocols yielded 25–30 mg TbTryS or LiTryS per litre of culture medium and homogeneous specific activity.
(§2) For all TryS, ATP was used at 150 μM because of a high background signal at higher concentrations and Spd fixed at 2 mM, in agreement with the intracellular levels calculated from data reported in the literature for trypanosomatids. GSH was adjusted to 0.05 and 0.25 mM for TbTryS and LiTryS, respectively, to avoid substrate inhibition or to approach physiological concentrations. […] Microtiter plate wells were loaded with 5 μL of the test compound, DMSO (reaction control) or a TryS specific inhibitor (inhibition control) and 40 μL of MM solution. The reactions were then started by adding 5 μL of TryS (2 and 3*10^−5 μmol*min^-1*mL^-1 for LiTryS and TbTryS, respectively) and stopped after 15 min with 200 μL BIOMOL® GREEN reagent (Enzo Life Sciences). The compounds used as inhibition control were added at concentrations that inhibited 50% TryS activity: 30 μM and 150 nM MOL2008 for TbTryS and LiTryS, respectively. Blanks were prepared for each condition by adding 5 μL of screening reaction buffer instead of the enzyme. The TryS activity is calculated as follows: TrySactivity%=A650nmCi-A650nmCiB/A650nmE-A650nmEB*100%
(§3) A650 nm Ci is the mean absorbance at 650 nm for the reaction test with compound I (Ci), A650 nm CiB is the mean absorbance at 650 nm for the blank control with compound I (CiB), A650 nm E is the mean absorbance at 650 nm for the reaction control with DMSO (E) and A650 nm EB is the mean absorbance at 650 nm for the blank control with DMSO (EB). The errors were expressed as 2 standard deviations (SD), SD estimated as σ^n−1.

[2] = system: murine macrophages J774.A1; test: Cytotoxicity assays on murine macrophages (WST-1); assay type: cell-based; conditions: error 1 SD; for Macrophage toxicity [% at 30 μM]: % cell death at 30 μM
Description: Cytotoxicity assays on murine macrophages. Murine macrophages from the cell line J774.A1 (ATCC® TIB-67TM) were cultivated under a humidified 5% CO2/95% air atmosphere at 37°C in Dulbecco’s modified Eagle’s medium (DMEM) supplemented with 10% (v/v) FBS, 10 U/mL penicillin and 10 μg/mL streptomycin. The experimental protocol for the determination of EC50 values was identical as described by Demoro et al. 2012 [71], with the following change: 200 μL/well of a cell suspension at 6 × 10^4 cells per mL was added in a 96-well culture plate and washed with 150 μL of DMEM. The cytotoxicity of the compounds was evaluated in triplicate using the WST-1 reagent (Roche). The control treatment included cells cultured in the presence of DMSO 1% (v/v). Absorbance at 450 nm (Ai 450 nm), corresponding to the formazan dye produced by metabolically active cells, was measured with an EL 800-microplate reader. The corrected absorbance values at 450 nm (Ai c 450 nm) were obtained by subtracting the corresponding absorbance value at 630 nm (Ai 630 nm) and the blank average (Ablank 450 nm): Aic450nm=Ai450nm-Ai630nm-Ablank450nm
Cell viability (%), with the number of viable cells proportional to the absorbance, was calculated as follows: cellviability%=Aic450nm/Anegativecontrolc450nm*100%
Ai c 450 nm refers to an absorbance obtained from cells treated with compound I at a specific concentration (i) and Anegative control c 450 nm refers to an absorbance obtained from cells in the DMSO-treated control (negative control). The errors were calculated using error propagations and are expressed as one SD, estimated as σ^n−1.

[3] = system: L. infantum amastigotes (intracellular, in J774.A1 macrophages); test: Viability assay for L. infantum amastigotes; assay type: cell-based; conditions: Leishmania infantum, J774.A1, 24 h, read-out: L. infantum amastigote viability [% at 20 μM]
Description: Viability assay for L. infantum amastigotes. L. infantum promastigotes from the reference strain MHOM/MA/67/ITMAP263, stably transfected with a vector encoding a red-shifted luciferase gene (RE9HLUC; Branchini et al.; Benítez et al.) were grown in fresh complete RPMI medium (RPMI basic medium containing 25 mM HEPES, 10% v/v iFBS, 100 U/mL penicillin, 100 μg/mL streptomycin and 15 μg/mL hygromycin B) at 28°C in sealed culture flasks. Metacyclic promastigotes were obtained by a negative selection procedure using peanut agglutinin and used to infect murine macrophages (cell line J774.A1) at a 1:10 ratio for macrophages (5×10^6 cells): parasites (5×10^7 cells). 200 μL of this suspension was added per well to a 96-well culture microplate, which was then incubated at 37°C for 24 h in a 5% CO2/95% air atmosphere incubator. […] The culture microplate was incubated in the CO2 incubator for additional 24 h. Next, the supernatant was removed and the microplate wells were washed with pre-warmed PBS (200 μL). […] All conditions were tested in triplicates and the percentage amastigote viability was calculated as described for infective T. b. brucei, with errors expressed as one SD, estimated as σ^n-1.
A macrophage cell density correction factor based on the incorporation of propidium iodide was calculated and applied to normalise amastigote viability related to host cell density in the well. For a detailed explanation of the protocol, see Benítez et al..

[4] = system: trypanothione synthetase of T. b. brucei (TbTryS); test: TryS activity screening assay on recombinant TbTryS; assay type: biochemical; conditions: % activity at 30 μM compound, errors 2 SD
Description: as §1, §2, §3

[5] = system: bloodstream form of T. b. brucei strain 427; test: Viability assay for T. b. brucei (whole parasite, bioluminescence); assay type: cell-based; conditions: 24 h; for T. b. brucei (BS) proliferation [% at 10 μM]: 10 μM compound; for EC50: read-out: T. b. brucei (BS) [EC50
Description: Viability assay for T. b. brucei. The bloodstream form of the monomorphic T. b. brucei strain 427, cell line 5141313, constitutively and stably expressing an ectopic copy of the Photinus pyralis red-shifted luciferase, was cultured in vitro with HMI-9 medium, supplemented with 10% fetal bovine serum, 10 U/mL penicillin (Gibco), 10 μg/mL streptomycin (Gibco), 0.2 μg/mL bleomycin (Jena Bioscience), 4 μg/mL G418 disulfate salt (Sigma-Aldrich) and 0.2 μg/mL puromycin (Invitrogen), inside a humidified incubator (Thermo Fisher Scientific) with controlled temperature (37°C) and CO2 (5%) in a 25 or 75 cm^2 vented-cap culture-flask. The anti-trypanosomal activity of compounds was evaluated in a 96-well culture plate containing 2.2 μL/well DMSO (negative control) or compounds dissolved in DMSO (1% final concentration), and 220 μL/well of a suspension of 1 × 10^5 parasites/mL. The plates were incubated at 37°C and 5% CO2 for 24 h. Next, each well was transferred to a 96-well black plate, and 20 μL of a solution containing d-luciferin (1.5 mg/mL in PBS glucose 1% w/v) and Triton X-100 (0.05% v/v) was added. Bioluminescence signal was measured in a LUMIstar OPTIMA Microplate luminometer using the following settings: 10 s shaking, 5 s/well acquisition, 0.2 s measurement delay, maximum gain, and 37°C. For the bioluminescence assay, parasite viability was calculated according to the following formula: parasiteviability%=BLcpd-BLblank/BLneg-BLblank*100%
BL refers to the mean of bioluminescence signal corresponding to the tested compound (cpd), the blank (blank, complete media containing 1% v/v DMSO), or the negative control (neg, parasites treated with 1% v/v DMSO). EC50 values were determined from concentration-response curves fitted to a four-parameter sigmoid equation using the GraphPad Prism software (version 6.0). All errors are expressed as one SD, estimated as σ^n-1. For a detailed explanation of the protocol, see Dibello et al..

Chain of trypanothione synthetase of L. infantum (LiTryS) (A4I2Z3 entry or part of it): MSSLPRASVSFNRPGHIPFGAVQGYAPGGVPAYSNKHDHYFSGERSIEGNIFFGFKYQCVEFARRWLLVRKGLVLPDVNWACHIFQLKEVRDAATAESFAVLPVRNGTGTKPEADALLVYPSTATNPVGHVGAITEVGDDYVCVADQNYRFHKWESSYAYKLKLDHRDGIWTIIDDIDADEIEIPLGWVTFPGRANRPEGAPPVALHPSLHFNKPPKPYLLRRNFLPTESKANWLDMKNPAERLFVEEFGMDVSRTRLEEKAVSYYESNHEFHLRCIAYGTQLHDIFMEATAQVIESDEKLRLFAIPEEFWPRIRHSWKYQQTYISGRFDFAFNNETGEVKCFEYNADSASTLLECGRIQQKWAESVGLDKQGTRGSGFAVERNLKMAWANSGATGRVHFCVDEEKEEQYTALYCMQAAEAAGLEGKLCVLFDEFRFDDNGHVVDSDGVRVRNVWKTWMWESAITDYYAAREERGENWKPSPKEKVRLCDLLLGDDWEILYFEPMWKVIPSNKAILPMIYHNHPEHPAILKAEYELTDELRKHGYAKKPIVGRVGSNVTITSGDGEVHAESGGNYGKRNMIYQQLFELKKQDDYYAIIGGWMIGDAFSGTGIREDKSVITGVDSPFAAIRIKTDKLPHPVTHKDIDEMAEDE

Row | Structure (SMILES) | activity at 30 µM [1] [%] | Macrophage toxicity [% at 30 μM] [2] [%] | viability at 20 µM [3] [%] | TbTryS activity [% at 30 μM] [4] [%] | T. b. brucei (BS) proliferation [% at 10 μM] [5] [%] | EC50 ([5]; Trypanosoma brucei) [µM] | Macrophage toxicity [% at stated conc.] ([2]; % cell death at 60 μM) [%] | EC50 [5] [µM] | Macrophage toxicity [% at stated conc.] ([2]; % cell death at 100 μM) [%]
1 | CC(C)(C)OC(=O)CN1C(=O)Cc2ccccc2-c2ccccc21 [compound 18, tert-Butyl 2-(6-oxo-6,7-dihydro-5H-dibenzo[b,d]azepin-5-yl)acetate] | 99.4 ± 3 | 60 | – | – | – | – | – | – | –
2 | CC(C)(C)OC(=O)N1CCN(CCNC(=O)CN2C(=O)Cc3ccccc3-c3ccccc32)CC1 [4b, tert-Butyl 4-{2-[2-(6-oxo-6,7-dihydro-5H-dibenzo[b,d]azepin-5-yl)acetamido]ethyl}piperazine-1-carboxylate] | 103 ± 8.6 | 40 | 93.9 ± 6.6 | – | – | – | – | – | –
3 | CN(CCNC(=O)CN1C(=O)Cc2c([nH]c3ccc(Cl)cc23)-c2ccc(Cl)cc21)C(=O)OC(C)(C)C [10b, tert-Butyl {2-[2-(3,9-dichloro-6-oxo-7,12-dihydrobenzo[2,3]azepino[4,5-b]indol-5(6H)-yl)acetamido]ethyl}(methyl)carbamate] | 35.4 | – | – | 94.2 ± 17.1 | 0.0 ± 1.4 | 1.9 ± 1.2 | 47.9 ± 4.8 | – | –
4 | CN(CCNC(=O)CN1C(=O)Cc2c([nH]c3ccc(I)cc23)-c2ccc(Cl)cc21)C(=O)OC(C)(C)C [10a, tert-Butyl {2-[2-(3-chloro-9-iodo-6-oxo-7,12-dihydrobenzo[2,3]azepino[4,5-b]indol-5(6H)-yl)acetamido]ethyl}(methyl)carbamate] | 38.3 ± 4.8 | – | – | 90.2 ± 13.2 | 0.0 ± 1.2 | 5.3 ± 1.3 | 75.9 ± 9.9 | – | –
5 | CN(CCNC(=O)CN1C(=O)Cc2c([nH]c3ccc(C(F)(F)F)cc23)-c2ccc(Cl)cc21)C(=O)OC(C)(C)C [10c, tert-Butyl {2-[2-(3-chloro-6-oxo-9-trifluoromethyl-7,12-dihydrobenzo[2,3]azepino[4,5-b]indol-5(6H)-yl)acetamido]ethyl}(methyl)carbamate] | 43.2 ± 9.1 | – | – | 95.2 ± 13.2 | 0.0 ± 1.0 | 11.6 ± 1.8 | – | ~12 | 94.9 ± 7.1
